Measured values from BindingDB's records for doi:10.1016/j.ejmech.2021.113764 (China Pharmaceutical University, 2021).

Assay: Antagonist activity at PAR4 in human platelet-rich plasma assessed as inhibition of PAR4 AP AYPGKF-NH2-induced platelet aggregation by photo-turbidimetry assay

IC50	Compound
0.02 µM	COc1cc(Cl)c2nc(-c3cc(C)cc4c(=O)n(C)cnc34)sc2c1
0.174 µM	Cc1cc(-c2ccc(Cl)cc2Cl)c2ncn(C)c(=O)c2c1
0.078 µM	COc1cc(F)c2nc(-c3cc(C)cc4c(=O)n(C)cnc34)sc2c1
0.029 µM	Cc1cc(-c2nc3c(s2)CCCC3)c2ncn(C)c(=O)c2c1
0.107 µM	CCOCn1cnc2c(-c3nc4c(Cl)cc(OC)cc4s3)cc(C)cc2c1=O
0.0066 µM	Cc1cc(-c2nc3c(Cl)cc(OCCNS(=O)(=O)c4ccc(C(F)(F)F)cc4)cc3s2)c2ncn(C)c(=O)c2c1
0.04 µM	CCc1cc(-c2nc3c(Cl)cc(OC)cc3s2)c2ncn(C)c(=O)c2c1

Assay: Antagonist activity at PAR4 in ICR mouse platelet-rich plasma assessed as inhibition of PAR4 AP AYPGKF-NH2-induced platelet aggregation by photo-turbidimetry assay

IC50	Compound
3.13 µM	COCc1nc2cc(C)cc(-c3nn4cc(C)nc4s3)c2[nH]1
> 10 µM	Cc1cc2c(c(-c3nn4ccnc4s3)c1)CCN(C)C2=O
8.7 µM	Cc1cc2c(c(-c3nn4cc(C)nc4s3)c1)CCN(C)C2=O
3 µM	Cc1cc(-c2nn3ccnc3s2)c2ccn(C)c(=O)c2c1
3.21 µM	Cc1cc(-c2nn3cc(C)nc3s2)c2ccn(C)c(=O)c2c1
0.79 µM	COCc1cnc2c(-c3nc4c(Cl)cc(OC)cc4s3)cc(C)cc2n1
1.63 µM	COCc1nc2cc(C)cc(-c3nc4c(Cl)cc(OC)cc4s3)c2[nH]1
1.84 µM	COc1cc(Cl)c2nc(-c3cc(C)cc4c3CCN(C)C4=O)sc2c1
0.98 µM	COc1cc(Cl)c2nc(-c3cc(C)cc4c(=O)n(C)ccc34)sc2c1
1.22 µM	Cc1cc(-c2ccc(Cl)cc2Cl)c2ncn(C)c(=O)c2c1
0.83 µM	COc1cc(F)c2nc(-c3cc(C)cc4c(=O)n(C)cnc34)sc2c1
0.11 µM	Cc1cc(-c2nc3c(s2)CCCC3)c2ncn(C)c(=O)c2c1
0.65 µM	CCOCn1cnc2c(-c3nc4c(Cl)cc(OC)cc4s3)cc(C)cc2c1=O
0.17 µM	Cc1cc(-c2nc3c(Cl)cc(OCCNS(=O)(=O)c4ccc(C(F)(F)F)cc4)cc3s2)c2ncn(C)c(=O)c2c1
> 10 µM	Cc1cc(-c2ccccc2)c2ncn(C)c(=O)c2c1
> 10 µM	Cc1ccc(-c2cc(C)cc3c(=O)n(C)cnc23)cc1
> 10 µM	Cc1cc(-c2ccccc2C)c2ncn(C)c(=O)c2c1
7.32 µM	COc1ccccc1-c1cc(C)cc2c(=O)n(C)cnc12
5.48 µM	Cc1cc(-c2ccccc2F)c2ncn(C)c(=O)c2c1
> 10 µM	Cc1cc(-c2ccc(F)cc2O)c2ncn(C)c(=O)c2c1
3.7 µM	Cc1cc(-c2cccc(Cl)c2Cl)c2ncn(C)c(=O)c2c1
> 10 µM	Cc1cc(-c2ccccc2C#N)c2ncn(C)c(=O)c2c1
> 10 µM	Cc1cc(-c2cccnc2)c2ncn(C)c(=O)c2c1
3.64 µM	Cc1cc(-c2nccs2)c2ncn(C)c(=O)c2c1

IC50	Compound
> 10 µM	Cc1cc(-c2cccc3ccccc23)c2ncn(C)c(=O)c2c1
> 10 µM	Cc1cc(-c2ccc3ccccc3n2)c2ncn(C)c(=O)c2c1
4.26 µM	Cc1cc(-c2cc3ccccc3o2)c2ncn(C)c(=O)c2c1
2.62 µM	Cc1cc(-c2nc3c(Cl)cc(Cl)cc3s2)c2ncn(C)c(=O)c2c1
5.57 µM	Cc1cc(-c2nc3c(Cl)cc4c(c3s2)OCCO4)c2ncn(C)c(=O)c2c1
2.07 µM	Cc1cc(-c2nc3c(Cl)cc(OCCNC(=O)OC(C)(C)C)cc3s2)c2ncn(C)c(=O)c2c1
6.78 µM	COc1cc(Cl)c2nc(-c3cccc4c(=O)n(C)cnc34)sc2c1
1.85 µM	CCn1cnc2c(-c3nc4c(Cl)cc(OC)cc4s3)cc(C)cc2c1=O
9.77 µM	COc1cc(Cl)c2nc(-c3cc(C)cc4c(=O)n(C(C)C)cnc34)sc2c1
1 µM	COCn1cnc2c(-c3nc4c(Cl)cc(OC)cc4s3)cc(C)cc2c1=O
> 10 µM	COc1cc(Cl)c2nc(-c3cc(C)cc4c(=O)n(Cc5ccccc5)cnc34)sc2c1
1.38 µM	CCCCc1cc(-c2nc3c(Cl)cc(OC)cc3s2)c2ncn(C)c(=O)c2c1
2.09 µM	COc1cc(Cl)c2nc(-c3cc(C)cc4c(=O)n(C)c(C)nc34)sc2c1
> 10 µM	COc1cc(Cl)c2nc(-c3cc(C)cc4c(=O)n(C)c(C(C)C)nc34)sc2c1
5.34 µM	COc1cc(F)c2nc(-c3cccc4c(=O)n(C)cnc34)sc2c1
9.95 µM	CCn1cnc2c(-c3nc4c(F)cc(OC)cc4s3)cc(C)cc2c1=O
6.74 µM	COc1cc(F)c2nc(-c3cc(C)cc4c(=O)n(C(C)C)cnc34)sc2c1
4.2 µM	C#CCn1cnc2c(-c3nc4c(F)cc(OC)cc4s3)cc(C)cc2c1=O
5.45 µM	COc1cc(F)c2nc(-c3cc(C)cc4c(=O)n(C)c(C)nc34)sc2c1
2.61 µM	Cn1cnc2c(-c3nc4c(s3)CCCC4)cccc2c1=O
1.38 µM	Cc1cc(-c2nc3c(s2)CCCC3)c2nc[nH]c(=O)c2c1
3.74 µM	CCn1cnc2c(-c3nc4c(s3)CCCC4)cc(C)cc2c1=O
> 10 µM	Cc1cc(-c2nc3c(s2)CCCC3)c2ncn(C(C)C)c(=O)c2c1
2.32 µM	COCn1cnc2c(-c3nc4c(s3)CCCC4)cc(C)cc2c1=O

IC50	Compound
4.77 µM	CCOCn1cnc2c(-c3nc4c(s3)CCCC4)cc(C)cc2c1=O
3.54 µM	CCc1cc(-c2nc3c(s2)CCCC3)c2ncn(C)c(=O)c2c1
> 10 µM	CCc1cc(-c2nc3c(s2)CCCC3)c2ncn(CC)c(=O)c2c1
7.04 µM	CCCCc1cc(-c2nc3c(s2)CCCC3)c2ncn(C)c(=O)c2c1
6.28 µM	CCCCc1cc(-c2nc3c(s2)CCCC3)c2ncn(CC)c(=O)c2c1
8.21 µM	Cc1cc(-c2nc3c(s2)CCCC3)c2nc(C)n(C)c(=O)c2c1
3.02 µM	Cc1cc(-c2nc3c(Cl)cc(OCCN)cc3s2)c2ncn(C)c(=O)c2c1
> 10 µM	Cc1cc(-c2nc3c(Cl)cc(OCCNS(C)(=O)=O)cc3s2)c2ncn(C)c(=O)c2c1
2.52 µM	Cc1cc(-c2nc3c(Cl)cc(OCCNS(=O)(=O)c4ccccc4)cc3s2)c2ncn(C)c(=O)c2c1
0.52 µM	Cc1ccc(S(=O)(=O)NCCOc2cc(Cl)c3nc(-c4cc(C)cc5c(=O)n(C)cnc45)sc3c2)cc1
1.04 µM	Cc1cc(-c2nc3c(Cl)cc(OCCNS(=O)(=O)c4ccc(Cl)cc4)cc3s2)c2ncn(C)c(=O)c2c1
8.22 µM	Cc1cc(-c2nc3c(Cl)cc(OCCNS(=O)(=O)c4ccc(F)cc4)cc3s2)c2ncn(C)c(=O)c2c1
0.95 µM	Cc1cc(-c2nc3c(Cl)cc(OCCNS(=O)(=O)c4ccc(Cl)cc4Cl)cc3s2)c2ncn(C)c(=O)c2c1
> 10 µM	Cc1cc(-c2nc3c(Cl)cc(OCCNC(=O)c4ccccc4)cc3s2)c2ncn(C)c(=O)c2c1
> 10 µM	Cc1cc(-c2nc3c(Cl)cc(OCCNS(=O)(=O)c4ccc(-c5ccccc5)cc4)cc3s2)c2ncn(C)c(=O)c2c1
7.61 µM	Cc1cn2nc(-c3cccc4ccoc34)sc2n1
3.44 µM	COCc1cc2cc(C)cc(-c3nn4ccnc4s3)c2o1
4.82 µM	COCc1cc2cc(C)cc(-c3nn4cc(C)nc4s3)c2o1
10 µM	COCc1cc2ccc(OC)c(-c3nn4ccnc4s3)c2o1
10 µM	COCc1cc2ccc(OC)c(-c3nn4cc(C)nc4s3)c2o1
0.16 µM	CCc1cc(-c2nc3c(Cl)cc(OC)cc3s2)c2ncn(C)c(=O)c2c1
0.94 µM	CSc1nn2cc(-c3cc4ccccc4o3)nc2s1 [US9862730, Example 1]
1.82 µM	Cc1nn2cc(-c3cc4ccccc4o3)nc2s1 [US9862730, Example 41]
